Literature values as cited in patent publication US20100234388A1, “SUBSTITUTED PDE5 INHIBITORS” (AUSPEX PHARMACEUTICALS, INC., priority 2006, published 2010).

Assays:
[1] = human, in vivo
[2] = human, in vivo; remark: listed apart in the source
PDE5 versus PDE6 = conditions: compared with sildenafil and vardenafil

In the case of `CN1CC(=O)N2[C@H](c3ccc4c(c3)OCO4)c3[nH]c4ccccc4c3C[C@@H]2C1=O` [tadalafil, Tadalafil], the exercise tolerance [1] is given as “improve exercise tolerance”, the “patients with side effects of chromatopsia, increased sensitivity to light, and blurred vision” value [2] is given as “less than 0.1%” and the “selectivity for PDE5 versus PDE6” value (PDE5 versus PDE6) is given as “much more selective”.
